Our source for the IC50 values is US20240116985A1, “STAPLED PEPTIDES AND METHODS THEREOF” (priority 2020, published 2024).

Assay [1] deals with T1, full-length beta-Catenin (Uniprot ID P35222) (Homo sapiens, UniProt P35222).
T1 construct: 10 nM full-length beta-Catenin (Uniprot ID P35222)
T1 sequence (P35222 1-781): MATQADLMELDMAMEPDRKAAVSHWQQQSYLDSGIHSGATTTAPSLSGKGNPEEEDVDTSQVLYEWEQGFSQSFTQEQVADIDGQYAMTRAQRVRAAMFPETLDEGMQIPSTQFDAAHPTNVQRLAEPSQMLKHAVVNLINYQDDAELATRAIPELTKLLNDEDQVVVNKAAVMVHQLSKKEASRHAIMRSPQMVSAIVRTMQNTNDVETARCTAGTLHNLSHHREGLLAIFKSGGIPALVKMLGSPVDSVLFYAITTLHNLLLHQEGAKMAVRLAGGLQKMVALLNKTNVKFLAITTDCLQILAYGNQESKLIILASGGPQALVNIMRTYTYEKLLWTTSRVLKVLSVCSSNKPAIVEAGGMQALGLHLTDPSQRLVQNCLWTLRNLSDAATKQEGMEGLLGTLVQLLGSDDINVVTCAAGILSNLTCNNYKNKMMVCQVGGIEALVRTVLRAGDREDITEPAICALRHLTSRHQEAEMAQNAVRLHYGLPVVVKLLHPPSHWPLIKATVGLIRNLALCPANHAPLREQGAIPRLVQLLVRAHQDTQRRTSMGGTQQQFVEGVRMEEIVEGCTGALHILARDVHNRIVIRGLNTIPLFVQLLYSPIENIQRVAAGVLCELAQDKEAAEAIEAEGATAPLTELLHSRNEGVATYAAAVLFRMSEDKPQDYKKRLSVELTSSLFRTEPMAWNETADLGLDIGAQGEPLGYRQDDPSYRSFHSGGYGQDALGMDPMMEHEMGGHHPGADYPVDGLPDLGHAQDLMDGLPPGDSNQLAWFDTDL
The assay is described as follows: Fluorescence polarization IC50 (beta-catenin / 5FAM-TCF4 10-53 competition). It counts as binding. The settings on record: fluorescence polarization. In general terms: Fluorescence polarisation rises when a labelled molecule tumbles more slowly, as on binding a larger partner.

Assay [2] has as its target T2, beta-catenin/TCF4 engagement (Homo sapiens, UniProt P35222).
T2 construct: expressed in transfected cells; host or cells: HEK293
T2 sequence (P35222 1-781): T1 sequence (P35222 1-781)
The assay is described as follows: Nano-BRET target engagement assay (B-cat-Halo & TCF4-Luc in HEK293 cells). Type of assay: cell-based. The settings on record: absolute IC50. Background: In BRET a luciferase serves as donor, and the signal depends on an acceptor being close.

Read-outs that look alike come from different tables or passages of the source.

Take `CNC(=O)C[C@@H]1NC(=O)[C@H](Cc2ccccc2)NC(=O)[C@H](C)NC(=O)C(C)(C)NC(=O)[C@H]([C@@H](C)O)NC(=O)[C@H](CC(N)=O)NC(=O)C2(CCCC=CCCCOC(=O)N3CC[C@@](C(=O)N[C@@H](Cc4ccsc4)C(=O)N[C@@H](Cc4csc5ccccc45)C(=O)N[C@@H](CC(N)=O)C(N)=O)(C3)NC1=O)CCCC=CC[C@]1(CCCN1C(C)=O)C(=O)N[C@@H](CC(=O)O)C(=O)N[C@@H](CC(C)(C)C)C(=O)N2` (stereo partly drawn) [I-2497, Ac-PL3-Asp-Npg-B5-Asn-Thr-Aib-Ala-Phe-MeAsn-PyrS2-3Thi-BztA-Asn-NH2]: the IC50 (in general, the concentration that inhibits the measured activity by half) was 105 nM in assay [1] (read-out: beta-Catenin FP IC50) and over 20 µM in assay [2] (read-out: NanoBRET Abs IC50).
Regarding `CC(=O)N1CCC[C@]12CC=CCCCC1(CCCC=CCCCOC(=O)N3CC[C@@](C(=O)N[C@@H](Cc4ccccc4)C(=O)N[C@@H](Cc4csc5ccccc45)C(=O)N[C@@H](CC(=O)N4CCOCC4)C(N)=O)(C3)NC(=O)[C@H](CC(C)C)NC(=O)[C@H](Cc3ccccc3)NC(=O)[C@H](C)NC(=O)[C@H](CCC(=O)N(C)C)NC(=O)[C@H](CCC(N)=O)NC(=O)[C@H](CC(=O)O)NC1=O)NC(=O)[C@H](CC1CCCCC1)NC(=O)[C@H](CC(N)=O)NC2=O` (stereo partly drawn) [I-2501, Ac-PL3-Asn-Cha-B5-Asp-Gln-Me2Gln-Ala-Phe-Leu-PyrS2-Phe-BztA-MorphAsn-NH2], the IC50 was 154 nM in assay [1] (read-out: beta-Catenin FP IC50) and over 20 µM in assay [2] (read-out: NanoBRET Abs IC50).
Take `CNC(=O)CC[C@@H]1NC(=O)[C@H](CCC(N)=O)NC(=O)[C@H](CC(=O)O)NC(=O)C2(CCCC=CCCCOC(=O)N3CC[C@@](C(=O)N[C@@H](Cc4ccccc4)C(=O)N[C@@H](Cc4csc5ccccc45)C(=O)N[C@@H](CC(=O)N4CCOCC4)C(N)=O)(C3)NC(=O)[C@H](CC(C)C)NC(=O)[C@H](Cc3ccccc3)NC(=O)[C@H](C)NC1=O)CCCC=CC[C@]1(CCCN1C(C)=O)C(=O)N[C@@H](CC(N)=O)C(=O)N[C@@H](CC1CCCCC1)C(=O)N2` (stereo partly drawn) [I-2502, Ac-PL3-Asn-Cha-B5-Asp-Gln-MeGln-Ala-Phe-Leu-PyrS2-Phe-BztA-MorphAsn-NH2]: the IC50 in assay [1] (read-out: beta-Catenin FP IC50) is 214 nM; in assay [2] (read-out: NanoBRET Abs IC50) it was over 20 µM.
On to `CC(=O)N1CCC[C@]12CC=CCCCC1(CCCC=CCCCOC(=O)N3CC[C@@](C(=O)N[C@@H](Cc4ccccc4)C(=O)N[C@@H](Cc4csc5ccccc45)C(=O)N[C@@H](CC(=O)N4CCOCC4)C(N)=O)(C3)NC(=O)[C@H](CC(C)C)NC(=O)[C@H](Cc3ccccc3)NC(=O)[C@H](C)NC(=O)[C@H](CCC(N)=O)NC(=O)[C@H](CCC(N)=O)NC(=O)[C@H](CC(=O)O)NC1=O)NC(=O)[C@H](CC1CCCCC1)NC(=O)[C@H](CC(N)=O)NC2=O` (stereo partly drawn) [I-2504, Ac-PL3-Asn-Cha-B5-Asp-Gln-Gln-Ala-Phe-Leu-PyrS2-Phe-BztA-MorphAsn-NH2], for which the IC50 in assay [1] (read-out: beta-Catenin FP IC50) is 210 nM; in assay [2] (read-out: NanoBRET Abs IC50) it was over 20 µM.
On the same counts, the results for `CC(=O)N1CCC[C@]12CC=CCCCCC1(CCCCC=CCCOC(=O)N3CC[C@@](C(=O)N[C@@H](Cc4ccccc4C(F)(F)F)C(=O)N[C@@H](Cc4csc5ccccc45)C(=O)N[C@@H](CCC(N)=O)C(N)=O)(C3)NC(=O)[C@H](CC(C)C)NC(=O)[C@H](Cc3ccccc3)NC(=O)[C@H](C)NC(=O)[C@H](C)NC(=O)[C@H](Cc3cccc(C(=O)O)c3)NC(=O)[C@H](CC(=O)O)NC1=O)NC(=O)[C@H](CC(C)(C)C)NC(=O)[C@H](CC(=O)O)NC2=O` (stereo partly drawn) [I-2508, Ac-PL3-Asp-Npg-B6-Asp-3COOHF-Ala-Ala-Phe-Leu-PyrS1-2F3MeF-BztA-Gln-NH2] are 152 nM and 27.3 µM.
As to `CC(=O)N1CCC[C@]12CC=CCCCCC1(CCCCC=CCCOC(=O)N3CC[C@@](C(=O)N[C@@H](Cc4ccccc4C(F)(F)F)C(=O)N[C@@H](Cc4csc5ccccc45)C(=O)N[C@@H](C)C(N)=O)(C3)NC(=O)[C@H](CC(C)C)NC(=O)[C@H](Cc3ccccc3)NC(=O)[C@H](C)NC(=O)[C@H](CCC(N)=O)NC(=O)[C@H](Cc3cccc(C(=O)O)c3)NC(=O)[C@H](CC(=O)O)NC1=O)NC(=O)[C@H](CC(C)(C)C)NC(=O)[C@H](CC(=O)O)NC2=O` (stereo partly drawn) [I-2510, Ac-PL3-Asp-Npg-B6-Asp-3COOHF-Gln-Ala-Phe-Leu-PyrS1-2F3MeF-BztA-Ala-NH2], the figures for the IC50 in assay [1] (read-out: beta-Catenin FP IC50) and in assay [2] (read-out: NanoBRET Abs IC50) were 24 nM and 7.8 µM, respectively.
Take `CC(=O)N1CCC[C@]12CC=CCCCCC1(CCCCC=CCCCOC(=O)N3CC[C@@](C(=O)N[C@@H](Cc4ccccc4C(F)(F)F)C(=O)N[C@@H](Cc4csc5ccccc45)C(=O)N[C@@H](CCC(N)=O)C(N)=O)(C3)NC(=O)[C@H](CC(C)C)NC(=O)[C@H](Cc3ccccc3)NC(=O)[C@H](C)NC(=O)[C@H](C)NC(=O)[C@H](Cc3cccc(C(=O)O)c3)NC(=O)[C@H](CC(=O)O)NC1=O)NC(=O)[C@H](CC(C)(C)C)NC(=O)[C@H](CC(=O)O)NC2=O` (stereo partly drawn) [I-2513, Ac-PL3-Asp-Npg-B6-Asp-3COOHF-Ala-Ala-Phe-Leu-PyrS2-2F3MeF-BztA-Gln-NH2]: the IC50 in assay [1] (read-out: beta-Catenin FP IC50) was 66 nM; in assay [2] (read-out: NanoBRET Abs IC50), over 20 µM.
On to `CC(=O)N1CCC[C@]12CC=CCCCCC1(CCCCC=CCCCOC(=O)N3CC[C@@](C(=O)N[C@@H](Cc4ccccc4C(F)(F)F)C(=O)N[C@@H](Cc4csc5ccccc45)C(=O)N[C@@H](C)C(N)=O)(C3)NC(=O)[C@H](CC(C)C)NC(=O)[C@H](Cc3ccccc3)NC(=O)[C@H](C)NC(=O)[C@H](CCC(N)=O)NC(=O)[C@H](Cc3cccc(C(=O)O)c3)NC(=O)[C@H](CC(=O)O)NC1=O)NC(=O)[C@H](CC(C)(C)C)NC(=O)[C@H](CC(=O)O)NC2=O` (stereo partly drawn) [I-2515, Ac-PL3-Asp-Npg-B6-Asp-3COOHF-Gln-Ala-Phe-Leu-PyrS2-2F3MeF-BztA-Ala-NH2], for which the 50% inhibitory concentration (IC50) in assay [1] (read-out: beta-Catenin FP IC50) was 1610 nM; in assay [2] (read-out: NanoBRET Abs IC50), over 20 µM.
As for `CC(=O)N1CCC[C@]12CC=CCCCCC1(CCCCC=CCCCOC(=O)N3CC[C@@](C(=O)N[C@@H](Cc4ccccc4C(F)(F)F)C(=O)N[C@@H](Cc4csc5ccccc45)C(=O)N[C@@H](C)C(N)=O)(C3)NC(=O)[C@H](CC(C)C)NC(=O)[C@H](Cc3ccccc3)NC(=O)[C@H](C)NC(=O)[C@H](CCC(N)=O)NC(=O)[C@H](Cc3cccc(C(=O)O)c3)NC(=O)[C@H](CC(=O)O)NC1=O)NC(=O)[C@H](CC(C)(C)C)NC(=O)[C@H](CC(=O)O)NC2=O` (stereo partly drawn) [I-2517, Ac-PL3-Asp-Npg-B6-Asp-3COOHF-Gln-Ala-Phe-Leu-PyrS2-2F3MeF-BztA-Ala-NH2], the figures for the IC50 in assay [1] (read-out: beta-Catenin FP IC50) and in assay [2] (read-out: NanoBRET Abs IC50) were 61 nM and 30 µM, respectively.
With `CC(=O)N1CCC[C@]12CC=CCCCCC1(CCCCC=CCOC(=O)N3CC[C@@](C(=O)N[C@@H](Cc4ccccc4C(F)(F)F)C(=O)N[C@@H](Cc4csc5ccccc45)C(=O)N[C@@H](CCC(N)=O)C(N)=O)(C3)NC(=O)[C@H](CC(C)C)NC(=O)[C@H](Cc3ccccc3)NC(=O)[C@H](C)NC(=O)[C@H](C)NC(=O)[C@H](Cc3cccc(C(=O)O)c3)NC(=O)[C@H](CC(=O)O)NC1=O)NC(=O)[C@H](CC(C)(C)C)NC(=O)[C@H](CC(=O)O)NC2=O` (stereo partly drawn) [I-2518, Ac-PL3-Asp-Npg-B6-Asp-3COOHF-Ala-Ala-Phe-Leu-PyrS-2F3MeF-BztA-Gln-NH2], the IC50 was 212 nM in assay [1] (read-out: beta-Catenin FP IC50) and over 20 µM in assay [2] (read-out: NanoBRET Abs IC50).
In the case of `CC(=O)NCCCC[C@@H]1NC(=O)[C@H](CCC(N)=O)NC(=O)[C@H](CC(=O)O)NC(=O)C2(CCCC=CCCCOC(=O)N3CC[C@@](C(=O)N[C@@H](Cc4ccccc4)C(=O)N[C@@H](Cc4csc5ccccc45)C(=O)N[C@@H](CC(=O)N4CCOCC4)C(N)=O)(C3)NC(=O)[C@H](CC(C)C)NC(=O)[C@H](Cc3ccccc3)NC(=O)[C@H](C)NC1=O)CCCC=CC[C@]1(CCCN1C(C)=O)C(=O)N[C@@H](CC(N)=O)C(=O)N[C@@H](CC1CCCCC1)C(=O)N2` (stereo partly drawn) [I-2522, Ac-PL3-Asn-Cha-B5-Asp-Gln-[Ac]Lys-Ala-Phe-Leu-PyrS2-Phe-BztA-MorphAsn-NH2], the IC50 in assay [1] (read-out: beta-Catenin FP IC50) was 219 nM; in assay [2] (read-out: NanoBRET Abs IC50), over 20 µM.
Consider `CC(=O)N1CCC[C@]12CC=CCCCC1(CCCC=CCCCOC(=O)N3CC[C@@](C(=O)N[C@@H](Cc4ccccc4)C(=O)N[C@@H](Cc4csc5ccccc45)C(=O)N[C@@H](CC(=O)N4CCOCC4)C(N)=O)(C3)NC(=O)[C@H](CC(C)C)NC(=O)[C@H](Cc3ccccc3)NC(=O)[C@H](C)NC(=O)[C@H](CCCCNC(=O)c3ccccc3)NC(=O)[C@H](CCC(N)=O)NC(=O)[C@H](CC(=O)O)NC1=O)NC(=O)[C@H](CC1CCCCC1)NC(=O)[C@H](CC(N)=O)NC2=O` (stereo partly drawn) [I-2523, Ac-PL3-Asn-Cha-B5-Asp-Gln-[Phc]Lys-Ala-Phe-Leu-PyrS2-Phe-BztA-MorphAsn-NH2], for which the IC50 in assay [1] (beta-Catenin FP IC50 (nM)) is 1730 nM; in assay [2] (NanoBRET Abs IC50 (uM)), over 20 µM.
